pEC50, pIC50: −log10 of the molar value. In brackets after ≈: the same amount, converted by molar mass.
Assays:
[1] = biological target: hERG ion channel (Homo sapiens, UniProt Q12809); test: hERG activity (process of Bridgland-Taylor et al.); assay type: cell-based
Protocol: hERG activity was assessed using the process described by Bridgland-Taylor, M. H., et al, J. Pharm. Tox. Methods 54 (2006) 189-199.

[2] = Solubility in pH 7.4 phosphate buffer; assay type: physicochemical; conditions: aqueous buffer, thermodynamic from solid, equilibration 24 h at 25° C., HPLC-UV and LC-MSMS
Protocol: Solubility was determined in pH 7.4 phosphate buffer after equilibration for 24 h at 25° C. and HPLC-UV and LC-MSMS were used for quantitation.

[3] = biological target: T1, human mGluR2 (Homo sapiens, UniProt Q14416); test: [35S]-GTPγS binding assay, membranes from CHO cells stably expressing human mGluR2; assay type: biochemical; conditions: for Emax: 0.5 h, Emax relative to the maximum glutamate effect, 1 μM glutamate, read-out: Hu GTPgS Median Top Effect; for pEC50: allosteric activator activity in presence of 1 μM glutamate, CHO membranes, human mGluR2, read-out: Hu GTPgS EC50
T1 construct: expressed in transfected cells; host or cells: CHO cells, stably transfected; membranes
Protocol: A [^35S]-GTPγS binding assay was used to functionally assay mGluR2 receptor activation. The allosteric activator activity of compounds at the human mGluR2 receptor were measured using a [^35S]-GTPγS binding assay with membranes prepared from CHO cells that stably express the human mGluR2. The assay is based upon the principle that agonists bind to G-protein coupled receptors to stimulate GDP-GTP exchange at the G-protein. Since [^35S]-GTPγS is a non-hydrolyzable GTP analog, it can be used to provide an index of GDP-GTP exchange and, thus, receptor activation. The GTPγS binding assay therefore provides a quantitative measure of receptor activation.
Membranes were prepared from CHO cells stably transfected with human mGluR2. Membranes (30 μg protein) were incubated with test compound (3 nM to 300 μM) for 15 minutes at room temperature prior to the addition of 1 μM glutamate, and incubated for 30 min at 30° C. in 500 μl assay buffer (20 mM HEPES, 100 mM NaCl, 10 mM MgCl2), containing 30 μM GDP and 0.1 nM [^35S]-GTPγS (1250 Ci/mmol). Reactions were carried out in triplicate in 2 ml polypropylene 96-well plates. Reactions were terminated by vacuum filtration using a Packard 96-well harvester and Unifilter-96, GF/B filter microplates. The filter plates were washed 4×1.5 ml with ice-cold wash buffer (10 mM sodium phosphate buffer, pH 7.4). The filter plates were dried and 35 μl of scintillation fluid (Microscint 20) was added to each well. The amount of radioactivity bound was determined by counting plates on the Packard TopCount. Data was analyzed using GraphPad Prism, and EC50 and Emax values (relative to the maximum glutamate effect) were calculated using non-linear regression.

Chain of hERG ion channel (Q12809 whole entry): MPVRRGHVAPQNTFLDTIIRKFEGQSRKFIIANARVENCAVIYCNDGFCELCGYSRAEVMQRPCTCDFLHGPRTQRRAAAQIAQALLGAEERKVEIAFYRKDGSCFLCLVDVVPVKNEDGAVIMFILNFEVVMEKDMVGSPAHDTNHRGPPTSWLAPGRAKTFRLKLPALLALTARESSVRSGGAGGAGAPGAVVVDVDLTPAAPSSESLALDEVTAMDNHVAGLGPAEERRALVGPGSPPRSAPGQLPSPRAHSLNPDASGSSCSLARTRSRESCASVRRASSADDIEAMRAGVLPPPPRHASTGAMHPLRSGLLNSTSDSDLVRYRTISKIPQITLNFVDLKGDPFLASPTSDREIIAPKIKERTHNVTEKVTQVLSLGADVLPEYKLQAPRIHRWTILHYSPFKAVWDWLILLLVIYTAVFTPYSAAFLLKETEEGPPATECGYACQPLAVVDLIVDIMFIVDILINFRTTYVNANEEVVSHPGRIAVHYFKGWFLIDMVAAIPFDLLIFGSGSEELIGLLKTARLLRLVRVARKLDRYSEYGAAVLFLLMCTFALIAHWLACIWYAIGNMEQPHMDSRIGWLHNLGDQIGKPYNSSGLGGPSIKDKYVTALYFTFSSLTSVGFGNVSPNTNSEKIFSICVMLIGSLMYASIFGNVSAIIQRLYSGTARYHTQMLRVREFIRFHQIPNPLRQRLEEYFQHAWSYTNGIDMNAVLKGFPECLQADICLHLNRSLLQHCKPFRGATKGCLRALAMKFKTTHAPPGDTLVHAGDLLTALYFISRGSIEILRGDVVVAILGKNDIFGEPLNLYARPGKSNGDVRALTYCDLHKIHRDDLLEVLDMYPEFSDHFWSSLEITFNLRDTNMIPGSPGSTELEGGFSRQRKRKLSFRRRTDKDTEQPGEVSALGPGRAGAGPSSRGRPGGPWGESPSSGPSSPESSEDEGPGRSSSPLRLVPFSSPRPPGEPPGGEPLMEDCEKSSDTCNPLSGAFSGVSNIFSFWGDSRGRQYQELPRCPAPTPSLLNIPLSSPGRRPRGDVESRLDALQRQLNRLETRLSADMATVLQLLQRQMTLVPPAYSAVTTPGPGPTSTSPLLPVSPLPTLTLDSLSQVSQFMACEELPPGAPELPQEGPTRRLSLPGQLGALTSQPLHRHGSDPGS
T1 sequence (Q14416 19-872): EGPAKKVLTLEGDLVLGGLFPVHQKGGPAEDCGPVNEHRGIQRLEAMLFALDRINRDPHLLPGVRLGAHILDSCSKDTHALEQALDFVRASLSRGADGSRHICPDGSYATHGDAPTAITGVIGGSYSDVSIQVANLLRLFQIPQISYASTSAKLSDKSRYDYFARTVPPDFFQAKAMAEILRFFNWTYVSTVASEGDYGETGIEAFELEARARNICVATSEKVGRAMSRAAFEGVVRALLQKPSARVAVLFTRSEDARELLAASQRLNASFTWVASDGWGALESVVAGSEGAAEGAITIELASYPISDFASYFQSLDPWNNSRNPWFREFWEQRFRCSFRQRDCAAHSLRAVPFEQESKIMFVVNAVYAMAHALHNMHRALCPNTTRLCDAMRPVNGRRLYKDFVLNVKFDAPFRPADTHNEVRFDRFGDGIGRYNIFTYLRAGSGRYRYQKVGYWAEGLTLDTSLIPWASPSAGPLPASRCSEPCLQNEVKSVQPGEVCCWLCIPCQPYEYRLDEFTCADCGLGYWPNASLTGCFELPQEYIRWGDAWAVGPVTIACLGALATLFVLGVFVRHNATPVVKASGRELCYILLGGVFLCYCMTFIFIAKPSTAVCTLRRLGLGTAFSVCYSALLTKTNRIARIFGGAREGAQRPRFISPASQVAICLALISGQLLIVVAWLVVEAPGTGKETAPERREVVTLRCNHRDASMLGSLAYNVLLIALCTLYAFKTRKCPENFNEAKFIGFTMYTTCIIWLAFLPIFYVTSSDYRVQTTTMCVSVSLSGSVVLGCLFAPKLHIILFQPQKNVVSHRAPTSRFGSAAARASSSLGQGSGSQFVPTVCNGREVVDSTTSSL

SMILES	pIC50 [1]	solubility at 24 h [2] [µM]	Emax [3] [%]	pEC50 [3]	melting point [°C]
Cc1cc(-c2cc(C(=O)N(C)C)no2)cc2c1C(=O)N(C(C)C)C2 [Example 5, 5-(2-Isopropyl-7-methyl-1-oxo-2,3-dihydro-1H-isoindol-5-yl)-isoxazole-3-carboxylic acid dimethylamide]	< 4.48	19.2 (≈ 6.29 µg/mL)	67	6.37	
C[C@@H](C1CC1)N1Cc2cc(-c3cc(C(=O)N(C)C)no3)cc(Cl)c2C1=O [Example 1, 5-(7-chloro-2-((S)-1-cyclopropylethyl)-1-oxo-2,3-dihydro-1H-isoindolin-5-yl)-N,N-dimethylisoxazole-3-carboxamide]	< 4.48	33.4 (≈ 12.5 µg/mL)	127	7.19	143.5
CC(C)N1Cc2cc(-c3cc(C(N)=O)no3)cc(Cl)c2C1=O [Example 3]	< 4.48	21.4 (≈ 6.84 µg/mL)	117	6.67	
C[C@@H](C1CC1)N1Cc2cc(-c3cc(C(N)=O)no3)cc(Cl)c2C1=O [Example 7, 5-[7-Chloro-2-((S)-1-cyclopropyl-ethyl)-1-oxo-2,3-dihydro-1H-isoindol-5-yl]-isoxazole-3-carboxylic acid amide]	< 4.48	16.6 (≈ 5.74 µg/mL)	139	6.64	
Cc1cc(-c2cc(C(N)=O)no2)cc2c1C(=O)N([C@@H](C)C1CC1)C2 [Example 4, 5-[2-((S)-1-Cyclopropyl-ethyl)-7-methyl-1-oxo-2,3-dihydro-1H-isoindol-5-yl]-isoxazole-3-carboxylic acid amide]	< 4.48	9.53 (≈ 3.1 µg/mL)	130	6.82	
Cc1cc(-c2cc(C(=O)N(C)C(C)C)no2)cc2c1C(=O)N([C@@H](C)C1CC1)C2 [Example 12, 5-[2-((S)-1-Cyclopropyl-ethyl)-7-methyl-1-oxo-2,3-dihydro-1H-isoindol-5-yl]-isoxazole-3-carboxylic acid isopropyl-methyl-amide]	< 4.48	11.2 (≈ 4.27 µg/mL)	100	7.44	
Cc1cc(-c2cc(C(=O)N(C)C)no2)cc2c1C(=O)N([C@@H](C)C1CC1)C2 [Example 8, 5-[2-((S)-1-Cyclopropyl-ethyl)-7-methyl-1-oxo-2,3-dihydro-1H-isoindol-5-yl]-isoxazole-3-carboxylic acid dimethylamide]	< 4.48	31.1 (≈ 11 µg/mL)	123	6.94	
C[C@H](N1Cc2cc(-c3cc(C(=O)N(C)C)no3)cc(Cl)c2C1=O)C(F)(F)F [Example 17, 5-[7-Chloro-1-oxo-2-((S)-2,2,2-trifluoro-1-methyl-ethyl)-2,3-dihydro-1H-isoindol-5-yl]-isoxazole-3-carboxylic acid dimethylamide]	< 4.48	15.5 (≈ 6.23 µg/mL)	139	7.08	
CNC(=O)c1cc(-c2cc(C)c3c(c2)CN([C@@H](C)C2CC2)C3=O)on1 [Example 6, 5-[2-((S)-1-Cyclopropyl-ethyl)-7-methyl-1-oxo-2,3-dihydro-1H-isoindol-5-yl]-isoxazole-3-carboxylic acid methylamide]	4.64	17.5 (≈ 5.94 µg/mL)	110	6.29	
C[C@@H](C1CC1)N1Cc2cc(-c3cc(C(=O)N4CCOCC4)no3)cc(Cl)c2C1=O [Example 20, 7-Chloro-2-((S)-1-cyclopropyl-ethyl)-5-[3-(morpholine-4-carbonyl)-isoxazol-5-yl]-2,3-dihydro-isoindol-1-one]	< 4.48	5.74 (≈ 2.39 µg/mL)	122	7.07	
Cc1cc(-c2cc(C(=O)N3CCNCC3)no2)cc2c1C(=O)N([C@@H](C)C1CC1)C2 [Example 16, 2-((S)-1-Cyclopropyl-ethyl)-7-methyl-5-[3-(piperazine-1-carbonyl)-isoxazol-5-yl]-2,3-dihydro-isoindol-1-one]	< 4.48	435 (≈ 172 µg/mL)	79	6.18	
CNC(=O)c1cc(-c2cc(Cl)c3c(c2)CN([C@@H](C)C2CC2)C3=O)on1 [Example 2, 5-(7-chloro-2-((S)-1-cyclopropylethyl)-1-oxo-2,3-dihydro-1H-isoindolin-5-yl)-N-methylisoxazole-3-carboxamide]	4.68	6.82 (≈ 2.45 µg/mL)	114	6.22	212.3
CC(C)N1Cc2cc(-c3cc(C(=O)N(C)CCO)no3)cc(Cl)c2C1=O [Example 10, 5-(7-Chloro-2-isopropyl-1-oxo-2,3-dihydro-1H-isoindol-5-yl)-isoxazole-3-carboxylic acid (2-hydroxy-ethyl)-methyl-amide]	< 4.48	54.1 (≈ 20.4 µg/mL)	103	6.21	
C[C@@H](C1CC1)N1Cc2cc(-c3cc(C(=O)N(C)CCO)no3)cc(Cl)c2C1=O [Example 19, 5-[7-Chloro-2-((S)-1-cyclopropyl-ethyl)-1-oxo-2,3-dihydro-1H-isoindol-5-yl]-isoxazole-3-carboxylic acid (2-hydroxy-ethyl)-methyl-amide]	< 4.48	273 (≈ 110 µg/mL)	141	6.35	
CC(C)N1Cc2cc(-c3cc(C(=O)NC4CCCC4)no3)cc(Cl)c2C1=O [Example 14, 5-(7-Chloro-2-isopropyl-1-oxo-2,3-dihydro-1H-isoindol-5-yl)-isoxazole-3-carboxylic acid cyclopentylamide]	4.72	3.53 (≈ 1.37 µg/mL)	97	7.22	
C[C@H](N1Cc2cc(-c3cc(C(=O)N4CCOCC4)no3)cc(Cl)c2C1=O)C(F)(F)F [Example 21, 7-Chloro-5-[3-(morpholine-4-carbonyl)-isoxazol-5-yl]-2-((S)-2,2,2-trifluoro-1-methyl-ethyl)-2,3-dihydro-isoindol-1-one]	< 4.48	9.32 (≈ 4.14 µg/mL)	106	6.29	
CC(C)N1Cc2cc(-c3cc(C(=O)N4CCOCC4)no3)cc(Cl)c2C1=O [Example 15, 7-Chloro-2-isopropyl-5-[3-(morpholine-4-carbonyl)-isoxazol-5-yl]-2,3-dihydro-isoindol-1-one]	< 4.48	66.3 (≈ 25.8 µg/mL)	100	6.28	
CC(C)N(C)C(=O)c1cc(-c2cc(Cl)c3c(c2)CN([C@@H](C)C2CC2)C3=O)on1 [Example 18, 5-[7-Chloro-2-((S)-1-cyclopropyl-ethyl)-1-oxo-2,3-dihydro-1H-isoindol-5-yl]-isoxazole-3-carboxylic acid isopropyl-methyl-amide]	< 4.48	4.65 (≈ 1.87 µg/mL)	109	7.25	
Cc1cc(-c2cc(C(=O)N(C)C)no2)cc2c1C(=O)N([C@@H](C)C(F)(F)F)C2 [Example 11, 5-[7-M ethyl-1-oxo-2-((S)-2,2,2-trifluoro-1-methyl-ethyl)-2,3-dihydro-1H-isoindol-5-yl]-isoxazole-3-carboxylic acid dimethylamide]	< 4.48	4.35 (≈ 1.66 µg/mL)	114	7.18	
CC(C)N1Cc2cc(-c3cc(C(=O)N4CCCC4)no3)cc(Cl)c2C1=O [Example 9, 7-Chloro-2-isopropyl-5-[3-(pyrrolidine-1-carbonyl)-isoxazol-5-yl]-2,3-dihydro-isoindol-1-one]	< 4.48	3.57 (≈ 1.33 µg/mL)	101	7.43	
Cc1cc(-c2cc(C(=O)N(C)CCO)no2)cc2c1C(=O)N([C@@H](C)C1CC1)C2 [Example 13, 5-[2-((S)-1-Cyclopropyl-ethyl)-7-methyl-1-oxo-2,3-dihydro-1H-isoindol-5-yl]-isoxazole-3-carboxylic acid (2-hydroxy-ethyl)-methyl-amide]	< 4.48	153 (≈ 58.7 µg/mL)	78	6.32	
